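Dose response: 5 concentrations. Exposure: 48 h. Format: 96-well plates. Endpoint: linear interpolation; highest concentration if not reached. Here, GI50 denotes the concentration required for 50% inhibition of growth. At the TGI there is no net growth.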
How the values were obtained:
Assay in all cases: inhibition of tumour cell growth, NCI panel, 48 h
[1] = system: 786-0 renal
[2] = system: A498 renal
[3] = system: BT-549 breast
[4] = system: EKVX NSCLC
[5] = system: HCC-2998 colon
[6] = system: HCT-15 colon
[7] = system: HL-60(TB) leukemia
[8] = system: HOP-62 NSCLC
[9] = system: HOP-92 NSCLC
[10] = system: HS 578T breast
[11] = system: IGROV1 ovarian
[12] = system: K-562 leukemia
[13] = system: KM12 colon
[14] = system: LOX IMVI melanoma
[15] = system: MCF7 breast
[16] = system: MOLT-4 leukemia
[17] = system: NCI-H226 lung
[18] = system: NCI-H23 lung
[19] = system: NCI-H522 lung
[20] = system: NCI/ADR-RES ovarian
[21] = system: OVCAR-5 ovarian
[22] = system: OVCAR-8 ovarian
[23] = system: PC-3 prostate
[24] = system: RXF 393 renal
[25] = system: SF-268 CNS
[26] = system: SF-295 CNS
[27] = system: SF-539 CNS
[28] = system: SK-MEL-2 melanoma
[29] = system: SK-MEL-5 melanoma
[30] = system: SNB-19 CNS
[31] = system: SNB-75 CNS
[32] = system: TK-10 renal
[33] = system: U251 CNS
[34] = system: UACC-62 melanoma

COc1ccc(-c2nnc(COc3ccc(Cl)cc3Cl)o2)cc1OC
GI50 [1]: 1.8 µM | TGI [1]: 3.32 µM | GI50 [2]: 2.78 µM | TGI [2]: 7.22 µM | GI50 [3]: 16.9 µM | TGI [3]: 76.5 µM | GI50 [4]: 4.39 µM | TGI [4]: > 100 µM | GI50 [5]: > 100 µM | TGI [5]: > 100 µM | GI50 [6]: > 100 µM | TGI [6]: > 100 µM | GI50 [7]: > 100 µM | TGI [7]: > 100 µM | GI50 [8]: 2.37 µM | TGI [8]: 7.9 µM | GI50 [9]: 2.16 µM | TGI [9]: 4.91 µM | GI50 [10]: 3.73 µM | TGI [10]: 96.2 µM | GI50 [11]: 4.22 µM | TGI [11]: > 100 µM | GI50 [12]: > 100 µM | TGI [12]: > 100 µM | GI50 [13]: > 100 µM | TGI [13]: > 100 µM | GI50 [14]: 3.16 µM | TGI [14]: > 100 µM | GI50 [15]: 5.45 µM | TGI [15]: > 100 µM | GI50 [16]: 8.3 µM | TGI [16]: > 100 µM | GI50 [17]: 3.42 µM | TGI [17]: 30.3 µM | GI50 [18]: 6.18 µM | TGI [18]: > 100 µM | GI50 [19]: 3.28 µM | TGI [19]: 18.3 µM | GI50 [20]: 3.44 µM | TGI [20]: > 100 µM | GI50 [21]: 3.53 µM | TGI [21]: > 100 µM | GI50 [22]: 4.02 µM | TGI [22]: > 100 µM | GI50 [23]: 6.4 µM | TGI [23]: > 100 µM | GI50 [24]: 2.14 µM | TGI [24]: 4.59 µM | GI50 [25]: 5.95 µM | TGI [25]: 96.7 µM | GI50 [26]: 13.5 µM | TGI [26]: 70.6 µM | GI50 [27]: 5.52 µM | TGI [27]: 41.1 µM | GI50 [28]: 7.79 µM | TGI [28]: 37.5 µM | GI50 [29]: 3.27 µM | TGI [29]: > 100 µM | GI50 [30]: 6.69 µM | TGI [30]: > 100 µM | GI50 [31]: 1.61 µM | TGI [31]: 3.36 µM | GI50 [32]: 3.15 µM | TGI [32]: 6.61 µM | GI50 [33]: 4.36 µM | TGI [33]: 17.6 µM | GI50 [34]: 3.35 µM | TGI [34]: > 100 µM

Source: PubChem BioAssay (NCI)
